According to patent publication US4115385A, “Antibacterial 3-(5-tetrazolyl) penam compounds” (Pfizer Inc., priority 1977, dated 1978):
Values after ≈ are worked out from the molar mass of the structure shown.

The molecules below were run on Streptococcus pyogenes (assay: In vitro minimum inhibitory concentration (MIC) vs. Strep. pyogenes). Conditions: Streptococcus pyogenes, read-out: MIC vs. Strep. pyogenes.
Assay type: cell-based
Experimental: The antibacterial penam compounds of the instant invention show activity against a wide variety of gram-positive and gram-negative bacteria. […] The broth is inoculated with the bacterial culture, and with the test antibiotic, and then it is incubated overnight. On the next day, the test is read visually. The minimum inhibitory concentration (MIC) is the lowest concentration of antibiotic which prevents turbidity, i.e., which prevents growth of the microorganism. In vitro activities of several of the penam compounds of the invention are presented later in this specification.
In Table II, the minimum inhibitory concentrations (MIC's) of compounds of formula I, wherein R^2 is hydrogen, against a strain of Streptococcus pyogenes, are reported; and in Table III, minimum inhibitory concentrations of compounds of formula I, wherein R^2 is hydrogen, against a strain of Staphylococcus aureus, are presented. Because of the tautomeric nature of such tetrazole derivatives, referred to hereinbefore,each of the preparations tested also contains some of the corresponding compound of formula II, wherein R^3 is hydrogen.

Compound | MIC [µg/mL]
CC1(C)S[C@@H]2[C@H](NC(=O)[C@H](NC(=O)CCN)c3ccccc3)C(=O)N2[C@H]1c1nn[nH]n1 [D-2-(3-aminopropionamido)-2-phenylacetyl, 6-(D-2-[3-Aminopropionamido]-2-phenylacetamido)-2,2-dimethyl-3-(5-tetrazolyl)penam] | < 0.1
CC1(C)S[C@@H]2[C@H](NC(=O)[C@H](NC(=O)CCNC(=N)c3ccncc3)c3ccccc3)C(=O)N2[C@H]1c1nnn[nH]1 | < 0.1
COc1ccc(NC(=O)N[C@@H](C(=O)N[C@@H]2C(=O)N3[C@@H]2SC(C)(C)[C@@H]3c2nnn[nH]2)c2ccc(O)cc2)cc1 | < 0.1
CC1(C)S[C@@H]2[C@H](NC(=O)[C@H](NC(=O)CNC(=O)NC(=N)NCc3ccccc3)c3ccccc3)C(=O)N2[C@H]1c1nn[nH]n1 | 0.1 (≈ 0.165 µM)
CC1(C)S[C@@H]2[C@H](NC(=O)[C@H](NC(=O)CCl)c3ccco3)C(=O)N2[C@H]1c1nn[nH]n1 [6-(D-2-[2-Chloroacetamido]-2-[2-furyl]acetamido)-2,2-dimethyl-3-(5-tetrazolyl)penam] | < 0.1
CC1(C)S[C@@H]2[C@H](NC(=O)[C@H](NC(=O)CCNC(=N)c3cc(Br)cc(Br)c3)c3ccccc3)C(=O)N2[C@H]1c1nnn[nH]1 | < 0.1
CC1(C)S[C@@H]2[C@H](NC(=O)C(N)c3cc(O)ccc3Br)C(=O)N2[C@H]1c1nnn[nH]1 (mixture of isomers) | < 0.1
CC1(C)S[C@@H]2[C@H](NC(=O)[C@H](NC(=O)CNC(=N)c3cccc(S(N)(=O)=O)c3)c3ccccc3)C(=O)N2[C@H]1c1nnn[nH]1 | < 0.1
CC(=N)NCCC(=O)N[C@@H](C(=O)N[C@@H]1C(=O)N2[C@@H]1SC(C)(C)[C@@H]2c1nnn[nH]1)c1ccccc1 | < 0.1
COc1ccc(C(=O)NCC(=O)N[C@@H](C(=O)N[C@@H]2C(=O)N3[C@@H]2SC(C)(C)[C@@H]3c2nnn[nH]2)c2ccccc2)cc1 | 0.1 (≈ 0.177 µM)
CC1(C)S[C@@H]2[C@H](NC(=O)[C@H](N)c3cccc(N)c3)C(=O)N2[C@H]1c1nnn[nH]1 [D-2-amino-(3-aminophenyl)acetyl, 6-(D-2-Amino-2-[3-aminophenyl]acetamido)-2,2-dimethyl-3-(5-tetrazolyl)penam] | < 0.1
CC1(C)S[C@@H]2[C@H](NC(=O)[C@H](NC(=O)CCNC(=O)c3ccco3)c3ccccc3)C(=O)N2[C@H]1c1nnn[nH]1 | < 0.1
CC1(C)S[C@@H]2[C@H](NC(=O)[C@H](NC(=O)c3cccs3)c3ccccc3)C(=O)N2[C@H]1c1nnn[nH]1 | < 0.1
CNC(=N)NC(=O)NCC(=O)N[C@@H](C(=O)N[C@@H]1C(=O)N2[C@@H]1SC(C)(C)[C@@H]2c1nn[nH]n1)c1ccccc1 | < 0.1
CC1(C)S[C@@H]2[C@H](NC(=O)[C@H](NC(=O)CNC(=N)c3cnc4ccccc4n3)c3ccccc3)C(=O)N2[C@H]1c1nnn[nH]1 | 0.1 (≈ 0.171 µM)
CC1(C)S[C@@H]2[C@H](NC(=O)[C@H](NC(=S)Nc3ccccc3)c3ccccc3)C(=O)N2[C@H]1c1nnn[nH]1 [D-2-(3-phenylthioureido)-2-phenylacetyl, 6-(D-2-[3-Phenylthioureido]-2-phenylacetamide)-2,2-dimethyl-3-(5-tetrazol)penam] | < 0.1
CC1(C)S[C@@H]2[C@H](NC(=O)[C@H](N)C3CCCO3)C(=O)N2[C@H]1c1nnn[nH]1 (stereo partly drawn) [D-2-amino-2-(2-tetrahydrofuryl)acetyl] | < 0.1
CC1(C)S[C@@H]2[C@H](NC(=O)[C@H](NC(=O)CNC(=N)c3cc(I)cc(C#N)c3)c3ccccc3)C(=O)N2[C@H]1c1nnn[nH]1 | < 0.1
CC1(C)S[C@@H]2[C@H](NC(=O)[C@H](NC(=O)CCNC(=O)c3cccc(Cl)c3)c3ccccc3)C(=O)N2[C@H]1c1nnn[nH]1 | < 0.1
CNC(=N)NCC(=O)N[C@@H](C(=O)N[C@@H]1C(=O)N2[C@@H]1SC(C)(C)[C@@H]2c1nn[nH]n1)c1ccccc1 | < 0.1
CC1(C)S[C@@H]2[C@H](NC(=O)C(=O)c3ccccc3)C(=O)N2[C@H]1c1nnn[nH]1 [phenylglyoxyloyl] | < 0.1
CC1(C)S[C@@H]2[C@H](NC(=O)[C@H](NC(=O)OCc3ccccc3)c3ccccc3)C(=O)N2[C@H]1c1nnn[nH]1 | < 0.1
CC1(C)S[C@@H]2[C@H](NC(=O)[C@H](NC(=O)NC(=O)c3cc(Br)cc(Br)c3)c3ccccc3)C(=O)N2[C@H]1c1nn[nH]n1 | < 0.1
CCOC(=O)NCC(=O)N[C@@H](C(=O)N[C@@H]1C(=O)N2[C@@H]1SC(C)(C)[C@@H]2c1nnn[nH]1)c1ccccc1 | < 0.1
CC1(C)S[C@@H]2[C@H](NC(=O)[C@H](NS(=O)(=O)c3ccccc3)c3ccc(O)cc3)C(=O)N2[C@H]1c1nn[nH]n1 [6-(D-2-[Benzenesulfonamido]-2-[p-hydroxyphenyl]acetamido)-2,2-dimethyl-3-(5-tetrazolyl)penam] | < 0.1
CC1(C)S[C@@H]2[C@H](NC(=O)[C@H](NC(=O)CNC(=N)c3nc4ccccc4[nH]3)c3ccccc3)C(=O)N2[C@H]1c1nnn[nH]1 | < 0.1
CC1(C)S[C@@H]2[C@H](NC(=O)[C@H](NC(=O)Nc3ccccc3)c3ccccc3)C(=O)N2[C@H]1c1nnn[nH]1 [D-2-(3-phenylureido)-2-phenylacetyl] | < 0.1
CC1(C)S[C@@H]2[C@H](NC(=O)[C@H](NC(=O)CCNC(=O)c3ccccc3)c3ccccc3)C(=O)N2[C@H]1c1nnn[nH]1 | < 0.1

Same assay, conditions: Streptococcus pyogenes; Table II; two-fold serial dilution, Brain-Heart Infusion broth, overnight; read-out: MIC vs. Strep. pyogenes

MIC [µg/mL] | Compound
0.004 (≈ 0.00674 µM) | CC1(C)S[C@@H]2[C@H](NC(=O)[C@H](NC(=O)CNC(=N)c3cc(Cl)cc(C#N)c3)c3ccccc3)C(=O)N2[C@H]1c1nnn[nH]1
0.39 (≈ 1 µM) | CC1(C)S[C@@H]2[C@H](NC(=O)[C@H](N)c3ccc(N)cc3)C(=O)N2[C@H]1c1nnn[nH]1 [D-2-amino-(4-aminophenyl)acetyl, 6-(D-2-Amino-2-[4-aminophenyl]acetamido)-2,2-dimethyl-3-(5-tetrazolyl)penam]
3.12 (≈ 6.05 µM) | CC1(C)S[C@@H]2[C@H](NC(=O)[C@H](NC(=O)CNC(=O)NC(=N)N)c3ccccc3)C(=O)N2[C@H]1c1nn[nH]n1
3.2 (≈ 6.74 µM) | CC(=O)NC(=S)N[C@@H](C(=O)N[C@@H]1C(=O)N2[C@@H]1SC(C)(C)[C@@H]2c1nn[nH]n1)c1ccccc1
12.5 | CC1(C)S[C@@H]2[C@H](NC(=O)C(CN)c3ccccc3)C(=O)N2[C@H]1c1nnn[nH]1 (mixture of isomers) [DL-3-amino-2-phenylpropionyl, 6-(DL-3-amino-2-phenylpropionamido)-2,2-dimethyl-3-(5-tetrazolyl)penam]
0.2 (≈ 0.351 µM) | CC1(C)S[C@@H]2[C@H](NC(=O)[C@H](NC(=O)Cc3ccc(Br)cc3)c3ccccc3)C(=O)N2[C@H]1c1nnn[nH]1
0.004 (≈ 0.00665 µM) | CCCCN=C(NCCCC)SCC(=O)N[C@@H](C(=O)N[C@@H]1C(=O)N2[C@@H]1SC(C)(C)[C@@H]2c1nn[nH]n1)c1ccccc1
0.004 (≈ 0.00578 µM) | CC1(C)S[C@@H]2[C@H](NC(=O)[C@H](NC(=O)CNC(=N)c3cc(S(N)(=O)=O)cc(S(N)(=O)=O)c3)c3ccccc3)C(=O)N2[C@H]1c1nnn[nH]1
1.56 (≈ 3.57 µM) | Cc1ccc(S(=O)(=O)NC(=O)N[C@@H]2C(=O)N3[C@@H]2SC(C)(C)[C@@H]3c2nn[nH]n2)cc1 [N-(p-toluenesulfonyl)carbomoyl]
0.78 (≈ 1.46 µM) | CC1(C)S[C@@H]2[C@H](NC(=O)[C@H](NC(=O)CNC(=N)c3ncccn3)c3ccccc3)C(=O)N2[C@H]1c1nnn[nH]1
0.2 (≈ 0.407 µM) | CC1(C)S[C@@H]2[C@H](NC(=O)C(Cc3ccccc3)NC(=N)c3ccncc3)C(=O)N2[C@H]1c1nnn[nH]1 (stereo partly shown)
0.004 (≈ 0.00578 µM) | CC1(C)S[C@@H]2[C@H](NC(=O)[C@H](NC(=O)CNC(=N)c3cc(Br)cc(S(N)(=O)=O)c3)c3ccccc3)C(=O)N2[C@H]1c1nnn[nH]1
0.2 (≈ 0.383 µM) | CC1(C)S[C@@H]2[C@H](NC(=O)[C@H](NC(=O)NC(=O)c3ccncc3)c3ccccc3)C(=O)N2[C@H]1c1nn[nH]n1
1.56 (≈ 2.84 µM) | CC1(C)S[C@@H]2[C@H](NC(=O)[C@H](NC(=O)Cc3ccc(NC(=N)N)cc3)c3ccccc3)C(=O)N2[C@H]1c1nn[nH]n1
0.2 (≈ 0.48 µM) | CC1(C)S[C@@H]2[C@H](NC(=O)Cc3ccccc3CC(=O)O)C(=O)N2[C@H]1c1nnn[nH]1 [2-(2-[carboxymethyl]phenyl)acetyl, 6-(2-[2-(Carboxymethyl)phenyl]acetamido)-2,2-dimethyl-3-(5-tetrazolyl)penam]
0.004 (≈ 0.00751 µM) | CC1(C)S[C@@H]2[C@H](NC(=O)[C@H](NC(=O)NC(=O)CSC(=N)N)c3ccccc3)C(=O)N2[C@H]1c1nn[nH]n1 [6-(D-2-[3-(2-[Guanylthio]acetyl)ureido]-2-phenylacetamido)-2,2-dimethyl-3-(5-tetrazol-5-yl)penam]
1.56 (≈ 2.92 µM) | CC1(C)S[C@@H]2[C@H](NC(=O)[C@H](NC(=O)c3ccc(NC(=N)N)cc3)c3ccccc3)C(=O)N2[C@H]1c1nn[nH]n1 [6-(D-2-[p-Guanidinobenzamido]-2-phenylacetamido)-2,2-dimethyl-3-(5-tetrazolyl)penam]
0.2 (≈ 0.389 µM) | CC1(C)S[C@@H]2[C@H](NC(=O)[C@H](NC(=O)CSc3ncc[nH]3)c3ccccc3)C(=O)N2[C@H]1c1nn[nH]n1
0.39 (≈ 0.691 µM) | CC1(C)S[C@@H]2[C@H](NC(=O)[C@H](NC(=O)CNC(=O)OCc3ccccc3)c3ccccc3)C(=O)N2[C@H]1c1nnn[nH]1

Same assay, conditions: Streptococcus pyogenes; Table IV; read-out: MIC vs. Strep. pyogenes

MIC [µg/mL] | Compound
6.25 (≈ 16.2 µM) | CC1(C)S[C@@H]2[C@H](N3CN[C@H](c4ccccc4)C3=O)C(=O)N2[C@H]1c1nnn[nH]1 [6-(5-Oxo-4-phenyl-1-imidazolidinyl)-2,2-dimethyl-3-(5-tetrazolyl)penam]
6.25 (≈ 15.6 µM) | CC1(C)S[C@@H]2[C@H](N3CN[C@H](c4ccc(O)cc4)C3=O)C(=O)N2[C@H]1c1nnn[nH]1 [6-(5-Oxo-4-[p-hydroxyphenyl]-1-imidazolidinyl)-2,2-dimethyl-3-(5-tetrazolyl)penam]
